{
  "source": "patent US8710182B2",
  "about": "“Rapid glycopeptide optimization via neoglycosylation” (Wisconsin Alumni Research Foundation, priority 2006, dated 2014)",
  "system": "VRE",
  "details": "preliminary testing",
  "data": [
    {"substance": "2′-N-acyldecanoyl-glucosyl vancomycin neoglycoside [compound 5]", "values": [
      {"measurement": "activity against VRE", "value": "significant activity"}
    ]}
  ]
}
